Patent US20070015832A1, “Methods of treating overactive bladder and urinary incontinence” (Myriad Genetics, Incorporated, priority 2005, published 2007)
Where two headings read alike, the source gives them in different places.

Details: oral tablets, placebo group 6 patients
Procedure: Subjects will be stratified at randomization for use/non-use of AChE inhibitors. A target of 201 subjects (67 subjects per arm) in 3 treatment groups are enrolled for 12 Months with optional follow-on treatment after Month 12 (2 treatment groups).
The intraday dosing interval is approximately 12 hours. Study drug is instructed to be taken at approximately the same time each day during the participation in the 12-month study. Study medication may be taken with or without food.

C[C@@H](C(=O)O)c1ccc(-c2ccccc2)c(F)c1 [(R)-2-(2-fluoro-4-biphenyl)propionic acid]
patients exhibiting urinary incontinence (400 mg BID group (800 mg/day), p value vs. placebo = 0.028): 0 patients
patients exhibiting urinary incontinence (800 mg BID group (1600 mg/day), p value vs. placebo = 0.063): 1 patient
